Experimental data from US20200239530A1, “COMPOUNDS AND METHODS OF MODULATING PROTEIN DEGRADATION” (Vividion Therapeutics, Inc., priority 2017, published 2020).
Read-outs that look alike come from different tables or passages of the source. Each block holds one compound with its values, some of them ahead of it.

Key:
[1] = target: T1, PCGF2 Polycomb group RING finger protein 2 (Homo sapiens, UniProt P35227); experiment: Cysteine liganding, probe competition; type: binding
T1 construct: Cells were resuspended in cold PBS on ice and sonicated with a probe sonicator to achieve lysis; endogenous in cells
T1 sequence (P35227 1-344): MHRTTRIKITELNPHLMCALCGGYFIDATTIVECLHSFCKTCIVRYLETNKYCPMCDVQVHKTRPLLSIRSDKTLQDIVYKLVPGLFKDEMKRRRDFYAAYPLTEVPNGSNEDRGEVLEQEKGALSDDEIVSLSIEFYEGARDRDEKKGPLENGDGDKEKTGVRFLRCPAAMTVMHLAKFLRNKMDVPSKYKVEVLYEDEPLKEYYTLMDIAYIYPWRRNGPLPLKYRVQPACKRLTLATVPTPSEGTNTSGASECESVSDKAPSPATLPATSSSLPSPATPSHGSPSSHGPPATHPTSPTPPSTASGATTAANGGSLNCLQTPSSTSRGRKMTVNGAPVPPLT
Method: (§1) Cells were resuspended in cold PBS on ice and sonicated with a probe sonicator to achieve lysis. 200 μL of lysate containing 5 mg/ml proteome was treated with 2 μL of 100× compound stock in a 2-mL deep-well plate. The treated lysate was subsequently incubate at 25° C. for 1 hr with shaking at 600 rpm. The treated lysate was further incubated with 2 μL of 10 mM desthiobiotin iodoacetamide probe at 25° C. for 1 hr with shaking at 600 rpm. Next, the lysate was further treat with 20 μL of solution of PBS containing 11 mM MgSO4 and 2.5% Turbonuclease stock and incubated at 25° C. for 20 minutes with shaking at 600 rpm. 1.7 mL ice-cold acetone was added to each well and incubated at −20° C. for 2 hr, followed by max speed (4200 rpm) spin for 45 min. Acetone was then decanted and the plates were blotted to remove acetone. The plates were then dried in open air for 20 minutes. After drying, the plates were then covered with foil seal and stored at −80° C. overnight.
(§2) The next day, samples were re-suspended in 90 μL of solution of 9M urea, 50 mM ammonium bicarbonate and 10 mM DTT by incubating at 65C for 20 min with shaking at 1500 rpm. Next, samples were cooled to 37° C. and then 10 μL of 500 mM iodoacetamide solution (92.48 mg/ml) was added. The samples were then incubated at 37° C. for 30 min with shaking at 600 rpm.
(§3) ZEBA desalting plates were equilibrated 4 times using 250 μL of 2M urea, 50 mM ammonium bicarbonate solution followed by centrifugation at 1500 rpm for 2 minutes. After equilibration was complete, samples were applied to ZEBA desalting plate and spin at 1500 rpm for 2 min on top of 1 mL 96-well deep-well collection plate to buffer exchange samples. 4 μL of solution containing 25 mM CaCl2 and 0.25 mg/mL trypsin was added to the plate and the plate was then incubated at 37° C. for 2 hrs with shaking at 600 rpm. 300 μL of solution containing 5% high-capacity streptavidin agarose slurry in 25 mM Tris-HCl pH 7.5, 150 mM NaCl, and 0.1% NP-40 then added. The plate was incubated at 25° C. for 2 hrs with shaking at 600 rpm. Samples were transferred to 25 μm filter plate and spin at 1000 rpm for 2 min. Samples were then washed 3 times with 0.75 mL of wash buffer (25 mM Tris-HCl pH 7.5, 150 mM NaCl, and 0.1% NP-40) followed by washing 3 times with 0.75 mL PBS, and then 4 times with 0.75 mL water. After the washing step, samples were eluted into polypropylene 96-well plate by addition of 250 µL of 50% MeCN/water, 0.1% formic acid and allowed to gravity drip for 10 min, followed by centrifugation at 1000 rpm for 2 min. Speedvac was used to dry the plates at about 45° C. for […]. Then the plates were covered with foil seal and stored at −20° C.
(§4) Samples were resuspended by addition of 20 μl of 12.5% ACN, 0.1% formic acid solution, covered with foil seal, and incubated at 42° C. for 10 minutes with shaking at 600 rpm. Then add 30 μL of 0.1% formic acid solution was added and the plate was covered and incubated at 42° C. for 10 minutes with shaking at 600 rpm. Seal plate was then sealed with a 96-well silicon mat for analysis.

[2] = target: T2, Polycomb group RING finger protein 6 (PCGF6) (Homo sapiens, UniProt Q9BYE7); experiment: Cysteine liganding, probe competition; type: binding
T2 construct: Cells were resuspended in cold PBS on ice and sonicated with a probe sonicator to achieve lysis; endogenous in cells
T2 sequence (Q9BYE7 1-350): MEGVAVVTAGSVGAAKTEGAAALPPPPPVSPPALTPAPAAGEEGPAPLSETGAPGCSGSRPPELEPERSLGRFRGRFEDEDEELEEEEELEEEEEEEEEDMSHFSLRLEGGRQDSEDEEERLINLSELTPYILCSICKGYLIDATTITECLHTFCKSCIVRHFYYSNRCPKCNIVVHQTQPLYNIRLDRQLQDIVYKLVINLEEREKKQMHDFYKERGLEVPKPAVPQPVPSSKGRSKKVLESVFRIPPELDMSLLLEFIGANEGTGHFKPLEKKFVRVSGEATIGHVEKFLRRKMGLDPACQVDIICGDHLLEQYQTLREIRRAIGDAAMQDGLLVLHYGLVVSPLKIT
Method: as §1, §2, §3, §4

- KB05_100 uM_percent_inhibition ([1]; UniProt P35227, 100 uM): 29%
- inhibition at 100 µM ([1]; UniProt P35227, 100 uM, read-out: KB05_100 uM_percent_inhibition): 28%
- KB05_500 uM_percent_inhibition ([2]; 500 uM): 48%
- inhibition at 500 µM ([2]; 500 uM, read-out: KB05_500 uM_percent_inhibition): 33%
SMILES: C=CC(=O)N(c1ccccc1)c1ccc(Br)cc1 [KB05]

SMILES: O=C(CCl)Nc1cc(C(F)(F)F)cc(C(F)(F)F)c1 [KBO3]
- KB03_100 uM_percent_inhibition ([1]; UniProt P35227, 100 uM): 37%
- 100 ave ([1]; uniprot P35227): −4.4
- 500 ave ([1]; uniprot P35227): 35.9
- 100 Max ([1]; uniprot P35227, unit assumed): 5.9%
- 500 Max ([1]; uniprot P35227, unit assumed): 49.9%
- KB03_100 uM_percent_inhibition ([2]; 100 uM): 41%

SMILES: COc1ccc2c(c1)CCCN2C(=O)CCl [KB02]
- Liganded ([1]; PCGF2 Res# 233, uniprot P35227): YES
- inhibition at 500 µM ([2]; 500 uM, read-out: KB02_500 uM_percent_inhibition): 37%
